Measured values from patent US20200392158A1, “INHIBITORS OF LEUCINE RICH REPEAT KINASE 2” (GLAXOSMITHKLINE INTELLECTUAL PROPERTY DEVELOPMENT LIMITED, priority 2017, published 2020).

What was measured:
[1] = molecular target: T1, LRRK2 kinase in SH-SY5Y cells over-expressing recombinant full length LRRK2 (Homo sapiens, UniProt Q5S007); assay: Recombinant cellular LRRK2 AlphaScreen assay (LRRK2 Ser935 phosphorylation); format: cell-based; settings: 60 min
T1 construct: A BacMam virus expressing full length recombinant LRRK2 was purchased from Invitrogen; host or cells: SH-SY5Y human neuroblastoma cells transduced with BacMam LRRK2 virus
Method in brief: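 SH-SY5Y cells transduced with BacMam full-length LRRK2 (MOI 50) for 24 h, then treated 60 min at 37 °C with compound (11-point 1:4 series, top 10 uM, 0.1% DMSO). Lysates probed by AlphaScreen for pSer935 vs total LRRK2; values fitted to a sigmoidal dose-response model.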

human hepatocytes = assay: Metabolic stability assay in hepatocytes; format: in vitro ADME; settings: 0.5 μM test compound, intrinsic clearance
Description: c. Metabolic Stability Assay
Metabolic stability of compounds of the invention was evaluated in hepatocytes from human and preclinical species (e.g. rat). A test compound (0.5 μM) was incubated with 0.5 million viable hepatocytes at 37° C. in a 95% humidified incubator supplied with 5% CO2. 7-ethoxycoumarin was used as positive control and was treated in the same manner as the test compound. The incubation samples were gently mixed at 150 rpm. Incubation medium was Williams' Medium E containing 2 mM GlutaMAX™ and 25 mM HEPES. Samples were removed from incubation at a specified time interval (tx): 0, 15, 30, 60, 90 and 120 min. Reactions were terminated by adding equal volume of ice-cold acetonitrile/methanol/acetic acid (80/20/1, v/v/v) containing an internal standard (e.g. 100 ng/mL to butamide as internal standard). […] The instrument responses of the test compound and the internal standard were measured using a compound specific LC/MS/MS methodology. The percentage of remaining test compound is calculated from the peak area ratio between the remaining test compound after incubation (tx) and the test compound peak area at the beginning of incubation (tx=0 min).
The half-life (t1/2) is calculated using the following equation: […]
Metabolic stability of a test compound is expressed as Intrinsic Clearance (Clint) and is calculated from the half-life (t1/2) using the following equation: […]

T1 sequence (Q5S007 whole entry): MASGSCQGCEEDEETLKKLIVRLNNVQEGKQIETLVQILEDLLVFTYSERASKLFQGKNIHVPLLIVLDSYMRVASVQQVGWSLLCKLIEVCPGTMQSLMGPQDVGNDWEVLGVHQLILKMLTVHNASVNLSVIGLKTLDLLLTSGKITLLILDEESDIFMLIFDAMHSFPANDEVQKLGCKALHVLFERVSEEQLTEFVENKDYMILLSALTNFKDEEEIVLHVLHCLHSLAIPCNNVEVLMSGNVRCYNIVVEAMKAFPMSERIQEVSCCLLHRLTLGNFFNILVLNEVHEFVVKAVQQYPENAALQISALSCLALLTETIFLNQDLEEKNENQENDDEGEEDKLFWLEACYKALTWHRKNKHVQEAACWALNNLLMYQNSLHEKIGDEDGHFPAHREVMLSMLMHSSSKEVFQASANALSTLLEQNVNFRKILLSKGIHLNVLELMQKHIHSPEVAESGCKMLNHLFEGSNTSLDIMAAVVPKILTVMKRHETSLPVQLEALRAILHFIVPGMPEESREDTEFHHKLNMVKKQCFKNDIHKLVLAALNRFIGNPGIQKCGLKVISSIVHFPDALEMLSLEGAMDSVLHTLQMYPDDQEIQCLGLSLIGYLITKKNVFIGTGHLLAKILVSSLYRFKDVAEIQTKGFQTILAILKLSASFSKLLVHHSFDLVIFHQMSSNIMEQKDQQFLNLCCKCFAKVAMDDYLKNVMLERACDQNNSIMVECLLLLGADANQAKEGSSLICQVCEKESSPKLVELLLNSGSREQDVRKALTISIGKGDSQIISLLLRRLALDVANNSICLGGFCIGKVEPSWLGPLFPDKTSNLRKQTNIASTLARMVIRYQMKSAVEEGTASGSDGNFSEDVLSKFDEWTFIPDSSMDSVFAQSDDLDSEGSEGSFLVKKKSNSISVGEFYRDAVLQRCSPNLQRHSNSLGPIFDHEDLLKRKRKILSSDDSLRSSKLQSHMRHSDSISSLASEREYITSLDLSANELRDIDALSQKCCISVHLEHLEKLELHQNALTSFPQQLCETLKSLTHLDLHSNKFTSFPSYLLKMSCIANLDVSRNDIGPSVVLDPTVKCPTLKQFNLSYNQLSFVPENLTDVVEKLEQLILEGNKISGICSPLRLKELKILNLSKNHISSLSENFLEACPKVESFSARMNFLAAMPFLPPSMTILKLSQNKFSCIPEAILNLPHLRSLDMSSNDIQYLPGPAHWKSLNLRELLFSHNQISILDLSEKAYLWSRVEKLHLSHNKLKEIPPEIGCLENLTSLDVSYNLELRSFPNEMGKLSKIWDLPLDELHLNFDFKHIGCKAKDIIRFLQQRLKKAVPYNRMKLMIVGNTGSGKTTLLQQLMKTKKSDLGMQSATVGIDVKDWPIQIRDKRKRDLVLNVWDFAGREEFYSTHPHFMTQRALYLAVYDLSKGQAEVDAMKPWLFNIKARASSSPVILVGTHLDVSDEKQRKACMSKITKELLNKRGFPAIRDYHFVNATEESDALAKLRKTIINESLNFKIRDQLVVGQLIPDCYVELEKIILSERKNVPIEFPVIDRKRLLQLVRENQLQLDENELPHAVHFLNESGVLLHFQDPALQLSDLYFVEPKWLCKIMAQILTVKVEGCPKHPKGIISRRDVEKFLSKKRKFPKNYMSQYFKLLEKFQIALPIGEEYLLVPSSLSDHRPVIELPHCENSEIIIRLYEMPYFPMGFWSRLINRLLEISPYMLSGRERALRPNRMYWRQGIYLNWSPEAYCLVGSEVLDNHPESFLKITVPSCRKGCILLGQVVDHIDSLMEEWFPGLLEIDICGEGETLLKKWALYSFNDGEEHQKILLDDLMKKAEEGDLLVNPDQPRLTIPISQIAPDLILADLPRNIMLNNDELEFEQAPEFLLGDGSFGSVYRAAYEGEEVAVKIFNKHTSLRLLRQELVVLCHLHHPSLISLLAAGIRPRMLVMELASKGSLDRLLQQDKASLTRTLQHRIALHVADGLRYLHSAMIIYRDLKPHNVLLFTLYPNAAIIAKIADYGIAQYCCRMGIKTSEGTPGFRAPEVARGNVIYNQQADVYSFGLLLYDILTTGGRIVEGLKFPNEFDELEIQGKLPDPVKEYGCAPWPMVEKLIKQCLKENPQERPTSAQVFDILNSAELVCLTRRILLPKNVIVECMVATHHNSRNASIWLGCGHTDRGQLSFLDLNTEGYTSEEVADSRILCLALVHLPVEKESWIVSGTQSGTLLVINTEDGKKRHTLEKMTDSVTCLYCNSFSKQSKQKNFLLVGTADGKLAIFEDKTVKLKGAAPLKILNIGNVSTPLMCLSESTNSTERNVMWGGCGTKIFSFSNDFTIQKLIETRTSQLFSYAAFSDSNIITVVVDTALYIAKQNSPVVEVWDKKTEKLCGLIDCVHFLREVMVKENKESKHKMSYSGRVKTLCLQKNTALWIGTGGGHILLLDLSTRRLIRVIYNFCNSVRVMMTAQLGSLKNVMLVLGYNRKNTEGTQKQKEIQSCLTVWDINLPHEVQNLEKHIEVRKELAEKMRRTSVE

IC50 [1]: ≤ 100 nM | Clint (human) (human hepatocytes): > 10 mL/min/g
SMILES: Cc1c2c(nn1C(=O)C1CC1)OCCCNc1nc(ncc1Cl)N2 [E362, 14-Chloro-5-cyclopropanecarbonyl-4-methyl-8-oxa-2,5,6,12,16, 17-hexaazatricyclo[11.3.1.0^3,7]heptadeca-1(16),3,6,13(17),14-pentaene]
